Biological target: GLP-1R (Homo sapiens, UniProt P43220)
Assay: GLP-1R Activation - cAMP Assay
Assay type: cell-based
Settings: cAMP increase in CHO cells stably expressing GLP-1R; each compound run on one of the two cAMP assays (Assay 1 or Assay 2, not specified)
How it was run: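 cAMP rise read by HTRF after 30 min agonist exposure (10-point titration, 37 °C) in HBSS/20 mM Hepes/0.1% BSA, following 1 h pre-incubation. Cells: stable GLP-1R CHO line, 1,000/well, seeded overnight. Sigmoidal fit of response vs log concentration gives EC50.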

Sequence of GLP-1R (P43220 24-463): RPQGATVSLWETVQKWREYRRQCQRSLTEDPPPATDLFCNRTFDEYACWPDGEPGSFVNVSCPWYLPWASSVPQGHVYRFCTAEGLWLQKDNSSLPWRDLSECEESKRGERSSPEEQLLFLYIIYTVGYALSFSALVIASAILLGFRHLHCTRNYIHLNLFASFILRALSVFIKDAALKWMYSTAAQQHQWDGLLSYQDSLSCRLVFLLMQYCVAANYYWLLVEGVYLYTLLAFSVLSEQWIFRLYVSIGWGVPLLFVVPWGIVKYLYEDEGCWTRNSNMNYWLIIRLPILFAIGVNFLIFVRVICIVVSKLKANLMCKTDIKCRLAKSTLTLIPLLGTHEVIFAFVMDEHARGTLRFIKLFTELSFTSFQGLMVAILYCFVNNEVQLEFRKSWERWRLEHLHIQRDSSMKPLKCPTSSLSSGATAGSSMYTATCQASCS

SMILES | EC50
COCCn1c(Cc2cc(F)c(-c3cccc(OCc4ccc5c(c4)CN(S(C)(=O)=O)C5)n3)cc2F)nc2c(F)cc(C(=O)O)cc21 [Example 514, 2-(2,5-difluoro-4-(6-((2-(methylsulfonyl)isoindolin-5-yl)methoxy)pyridin-2-yl)benzyl)-4-fluoro-1-(2-methoxyethyl)-1H-benzo[d]imidazole-6-carboxylic acid] | 0.152 nM
COC(=O)N1Cc2ccc(COc3nc(-c4cc(F)c(Cc5nc6c(F)cc(C(=O)O)cc6n5C[C@@H]5CCO5)cc4F)ccc3F)cc2C1 [Example 515, (S)-2-(2,5-difluoro-4-(5-fluoro-6-((2-(methoxycarbonyl)isoindolin-5-yl)methoxy)pyridin-2-yl)benzyl)-4-fluoro-1-(oxetan-2-ylmethyl)-1H-benzo[d]imidazole-6-carboxylic acid] | 0.074 nM
COC(=O)N1Cc2ccc(COc3nc(-c4cc(F)c(Cc5nc6ccc(C(=O)O)cc6n5C[C@@H]5CCO5)cc4F)ccc3F)cc2C1 [Example 516, (S)-2-(2,5-difluoro-4-(5-fluoro-6-((2-(methoxycarbonyl)isoindolin-5-yl)methoxy)pyridin-2-yl)benzyl)-1-(oxetan-2-ylmethyl)-1H-benzo[d]imidazole-6-carboxylic acid] | 0.088 nM
CS(=O)(=O)N1Cc2ccc(COc3cccc(-c4cc(F)c(Cc5nc6c(F)cc(C(=O)O)cc6n5C[C@@H]5CCO5)cc4F)n3)cc2C1 [Example 517, (S)-2-(2,5-difluoro-4-(6-((2-(methylsulfonyl)isoindolin-5-yl)methoxy)pyridin-2-yl)benzyl)-4-fluoro-1-(oxetan-2-ylmethyl)-1H-benzo[d]imidazole-6-carboxylic acid] | 0.024 nM
CO[C@@H](C)Cn1c(Cc2cc(F)c(-c3cccc(OCc4ccc(C#N)cc4F)n3)cc2F)nc2c(F)cc(C(=O)O)cc21 [Example 518, (S)-2-(4-(6-((4-cyano-2-fluorobenzyl)oxy)pyridin-2-yl)-2,5-difluorobenzyl)-4-fluoro-1-(2-methoxypropyl)-1H-benzo[d]imidazole-6-carboxylic acid] | 0.887 nM
CS(=O)(=O)N1Cc2ccc(COc3cccc(-c4cc(F)c(Cc5nc6ccc(C(=O)O)cc6n5C[C@@H]5CCO5)cc4F)n3)cc2C1 [Example 519, (S)-2-(2,5-difluoro-4-(6-((2-(methylsulfonyl)isoindolin-5-yl)methoxy)pyridin-2-yl)benzyl)-1-(oxetan-2-ylmethyl)-1H-benzo[d]imidazole-6-carboxylic acid] | 0.102 nM
O=C(O)c1ccc2nc(Cc3cc(F)c(-c4cccc(OCc5ccc6c(c5)CN(C(=O)C5CC5)C6)n4)cc3F)n(C[C@@H]3CCO3)c2c1 [Example 520, (S)-2-(4-(6-((2-(cyclopropanecarbonyl)isoindolin-5-yl)methoxy)pyridin-2-yl)-2,5-difluorobenzyl)-1-(oxetan-2-ylmethyl)-1H-benzo[d]imidazole-6-carboxylic acid] | 0.27 nM
COC(=O)N1Cc2ccc(COc3cccc(-c4cc(F)c(Cc5nc6ccc(C(=O)O)cc6n5C[C@@H]5CCO5)cc4F)n3)cc2C1 [Example 521, (S)-2-(2,5-difluoro-4-(6-((2-(methoxycarbonyl)isoindolin-5-yl)methoxy)pyridin-2-yl)benzyl)-1-(oxetan-2-ylmethyl)-1H-benzo[d]imidazole-6-carboxylic acid] | 0.111 nM
CC(=O)N1Cc2ccc(COc3cccc(-c4cc(F)c(Cc5nc6ccc(C(=O)O)cc6n5C[C@@H]5CCO5)cc4F)n3)cc2C1 [Example 522, (S)-2-(4-(6-((2-acetylisoindolin-5-yl)methoxy)pyridin-2-yl)-2,5-difluorobenzyl)-1-(oxetan-2-ylmethyl)-1H-benzo[d]imidazole-6-carboxylic acid] | 0.165 nM
CC1(C)COC[C@H]1n1c(Cc2cc(F)c(-c3cccc(OCc4cnc(-n5ccnn5)cc4Cl)n3)cc2F)nc2c(Cl)cc(C(=O)O)cc21 [Example 528, (S)-4-chloro-2-(4-(6-((4-chloro-6-(1H-1,2,3-triazol-1-yl)pyridin-3-yl)methoxy)pyridin-2-yl)-2,5-difluorobenzyl)-1-(4,4-dimethyltetrahydrofuran-3-yl)-1H-benzo[d]imidazole-6-carboxylic acid] | 0.047 nM
COC(=O)N1Cc2ccc(COc3cccc(-c4cc(F)c(Cc5nc6ccc(C(=O)O)cc6n5[C@@H]5COCC5(C)C)cc4F)n3)cc2C1 [Example 529, (S)-2-(2,5-difluoro-4-(6-((2-(methoxycarbonyl)isoindolin-5-yl)methoxy)pyridin-2-yl)benzyl)-1-(4,4-dimethyltetrahydrofuran-3-yl)-1H-benzo[d]imidazole-6-carboxylic acid] | 0.598 nM
COC(=O)c1ccc2nc(Cc3cc(F)c(-c4cccc(OCc5ccc(Cl)cc5F)n4)cc3F)n([C@@H]3COCC3(C)C)c2c1 [Example 532, (S)-methyl 2-(4-(6-((4-chloro-2-fluorobenzyl)oxy)pyridin-2-yl)-2,5-difluorobenzyl)-1-(4,4-dimethyltetrahydrofuran-3-yl)-1H-benzo[d]imidazole-6-carboxylate] | 3680 nM
CO[C@H]1COC[C@H]1n1c(Cc2cc(F)c(-c3cccc(OCc4ccc(Cl)cc4F)n3)cc2F)nc2ccc(C(=O)O)cc21 [Example 533, 2-(4-(6-((4-chloro-2-fluorobenzyl)oxy)pyridin-2-yl)-2,5-difluorobenzyl)-1-((3R,4R)-4-methoxytetrahydrofuran-3-yl)-1H-benzo[d]imidazole-6-carboxylic acid] | 0.5 nM
CO[C@H]1COC[C@H]1n1c(Cc2cc(F)c(-c3ccc(F)c(OCc4ccc(Cl)cc4F)n3)cc2F)nc2ccc(C(=O)O)cc21 [Example 534, 2-(4-(6-((4-chloro-2-fluorobenzyl)oxy)-5-fluoropyridin-2-yl)-2,5-difluorobenzyl)-1-((3R,4R)-4-methoxytetrahydrofuran-3-yl)-1H-benzo[d]imidazole-6-carboxylic acid] | 0.353 nM
Cn1cc(-c2ccc(COc3cccc(-c4cc(F)c(Cc5nc6ccc(C(=O)O)cc6n5[C@@H]5COCC5(C)C)cc4F)n3)c(F)c2)cn1 [Example 535, (S)-2-(2,5-difluoro-4-(6-((2-fluoro-4-(1-methyl-1H-pyrazol-4-yl)benzyl)oxy)pyridin-2-yl)benzyl)-1-(4,4-dimethyltetrahydrofuran-3-yl)-1H-benzo[d]imidazole-6-carboxylic acid] | 0.099 nM
CC1(C)COC[C@H]1n1c(Cc2cc(F)c(-c3ccc(F)c(OCc4ccc(C(F)(F)F)cc4)n3)cc2F)nc2ccc(C(=O)O)cc21 [Example 536, (S)-2-(2,5-difluoro-4-(5-fluoro-6-((4-(trifluoromethyl)benzyl)oxy)pyridin-2-yl)benzyl)-1-(4,4-dimethyltetrahydrofuran-3-yl)-1H-benzo[d]imidazole-6-carboxylic acid] | 0.083 nM

Now from value to compound:

EC50 | SMILES
0.208 nM | Cn1nnc2ccc(COc3cccc(-c4cc(F)c(Cc5nc6ccc(C(=O)O)cc6n5[C@@H]5COCC5(C)C)cc4F)n3)cc21 [Example 513, (S)-2-(2,5-difluoro-4-(6-((1-methyl-1H-benzo[d][1,2,3]triazol-6-yl)methoxy)pyridin-2-yl)benzyl)-1-(4,4-dimethyltetrahydrofuran-3-yl)-1H-benzo[d]imidazole-6-carboxylic acid]
0.362 nM | Cn1nnc2cc(COc3cccc(-c4cc(F)c(Cc5nc6ccc(C(=O)O)cc6n5C[C@@H]5CCO5)cc4F)n3)ccc21 [Example 523, (S)-2-(2,5-difluoro-4-(6-((1-methyl-1H-benzo[d][1,2,3]triazol-5-yl)methoxy)pyridin-2-yl)benzyl)-1-(oxetan-2-ylmethyl)-1H-benzo[d]imidazole-6-carboxylic acid]
0.605 nM | Cn1ncc2ccc(COc3cccc(-c4cc(F)c(Cc5nc6ccc(C(=O)O)cc6n5C[C@@H]5CCO5)cc4F)n3)cc21 [Example 524, (S)-2-(2,5-difluoro-4-(6-((1-methyl-1H-indazol-6-yl)methoxy)pyridin-2-yl)benzyl)-1-(oxetan-2-ylmethyl)-1H-benzo[d]imidazole-6-carboxylic acid]
0.429 nM | Cn1nnc2ccc(COc3cccc(-c4cc(F)c(Cc5nc6ccc(C(=O)O)cc6n5C[C@@H]5CCO5)cc4F)n3)cc21 [Example 525, (S)-2-(2,5-difluoro-4-(6-((1-methyl-1H-benzo[d][1,2,3]triazol-6-yl)methoxy)pyridin-2-yl)benzyl)-1-(oxetan-2-ylmethyl)-1H-benzo[d]imidazole-6-carboxylic acid]
0.509 nM | Cn1ncc2cc(COc3cccc(-c4cc(F)c(Cc5nc6ccc(C(=O)O)cc6n5C[C@@H]5CCO5)cc4F)n3)ccc21 [Example 526, (S)-2-(2,5-difluoro-4-(6-((1-methyl-1H-indazol-5-yl)methoxy)pyridin-2-yl)benzyl)-1-(oxetan-2-ylmethyl)-1H-benzo[d]imidazole-6-carboxylic acid]
0.184 nM | O=C(O)c1ccc2nc(Cc3cc(F)c(-c4cccc(OCc5ccc6nsnc6c5)n4)cc3F)n(C[C@@H]3CCO3)c2c1 [Example 527, (S)-2-(4-(6-(benzo[c][1,2,5]thiadiazol-5-ylmethoxy)pyridin-2-yl)-2,5-difluorobenzyl)-1-(oxetan-2-ylmethyl)-1H-benzo[d]imidazole-6-carboxylic acid]
0.392 nM | O=C(O)c1ccc2nc(Cc3cc(F)c(-c4cccc(OCc5ccc6ncsc6c5)n4)cc3F)n(C[C@@H]3CCO3)c2c1 [Example 530, (S)-2-(4-(6-(benzo[d]thiazol-6-ylmethoxy)pyridin-2-yl)-2,5-difluorobenzyl)-1-(oxetan-2-ylmethyl)-1H-benzo[d]imidazole-6-carboxylic acid]
0.396 nM | Cn1c(=O)sc2cc(COc3cccc(-c4cc(F)c(Cc5nc6ccc(C(=O)O)cc6n5C[C@@H]5CCO5)cc4F)n3)ccc21 [Example 531, (S)-2-(2,5-difluoro-4-(6-((3-methyl-2-oxo-2,3-dihydrobenzo[d]thiazol-6-yl)methoxy)pyridin-2-yl)benzyl)-1-(oxetan-2-ylmethyl)-1H-benzo[d]imidazole-6-carboxylic acid]
